Here are results for two compounds from ChEMBL document CHEMBL1275601, “Striking species difference in the contribution of concentrative nucleoside transporter 2 to nucleoside uptake between mouse and rat hepatocytes” (Antimicrob Agents Chemother, 2010).

Each structure is given as a SMILES string. Activity calls are given as the source filed them. The calls are words filed in the database; no cut-off is given here.

What all share (assay type): cell-based
Test [1] deals with T1, Equilibrative nucleoside transporter 2 (Mus musculus) (UniProt Q61672).
T1 sequence (whole entry): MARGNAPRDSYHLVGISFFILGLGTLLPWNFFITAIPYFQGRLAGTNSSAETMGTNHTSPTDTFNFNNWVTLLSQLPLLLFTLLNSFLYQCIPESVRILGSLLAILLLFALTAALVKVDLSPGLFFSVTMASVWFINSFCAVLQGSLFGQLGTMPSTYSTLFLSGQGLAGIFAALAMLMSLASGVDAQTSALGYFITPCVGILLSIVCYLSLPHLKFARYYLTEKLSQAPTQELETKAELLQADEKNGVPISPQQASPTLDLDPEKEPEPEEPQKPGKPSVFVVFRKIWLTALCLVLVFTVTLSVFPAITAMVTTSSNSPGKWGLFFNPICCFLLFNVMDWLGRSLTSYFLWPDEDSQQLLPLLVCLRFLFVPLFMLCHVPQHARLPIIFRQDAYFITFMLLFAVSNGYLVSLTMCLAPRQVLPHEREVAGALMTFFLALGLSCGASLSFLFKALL
Put plainly: Transport through ENT2 in mouse hepatocytes by oil filtration assay in presence of sodium ions in Kreb-henseleit buffer. As to conditions: Hepatocyte.

The target of test [2] is T2, Sodium/nucleoside cotransporter 2 (Mus musculus) (UniProt O88627).
T2 sequence (whole entry): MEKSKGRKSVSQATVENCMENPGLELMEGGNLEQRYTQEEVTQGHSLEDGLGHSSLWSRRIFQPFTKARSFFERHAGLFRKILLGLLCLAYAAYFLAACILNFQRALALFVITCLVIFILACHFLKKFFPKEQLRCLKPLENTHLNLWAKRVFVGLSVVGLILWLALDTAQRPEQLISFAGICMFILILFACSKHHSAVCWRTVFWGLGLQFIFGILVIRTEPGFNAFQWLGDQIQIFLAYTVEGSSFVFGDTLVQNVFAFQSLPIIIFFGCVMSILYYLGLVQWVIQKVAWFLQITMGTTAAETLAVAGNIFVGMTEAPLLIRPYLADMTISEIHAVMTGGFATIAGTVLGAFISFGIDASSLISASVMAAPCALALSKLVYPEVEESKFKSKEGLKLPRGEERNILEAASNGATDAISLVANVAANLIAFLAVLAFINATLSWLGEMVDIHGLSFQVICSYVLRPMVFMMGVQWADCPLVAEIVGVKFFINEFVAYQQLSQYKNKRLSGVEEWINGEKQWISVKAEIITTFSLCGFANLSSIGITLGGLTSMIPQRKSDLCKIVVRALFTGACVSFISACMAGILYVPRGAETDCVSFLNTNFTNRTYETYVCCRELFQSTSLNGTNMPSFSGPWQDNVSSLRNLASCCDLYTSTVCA
Put plainly: Transport through CNT2 in mouse hepatocytes by oil filtration assay in presence of sodium ions in Kreb-henseleit buffer. As to conditions: Hepatocyte.

Test [3] relates to Hepatocyte. Put plainly: Transport through CNT3 in mouse hepatocytes by oil filtration assay in presence of sodium ions in Kreb-henseleit buffer.
Test [4] addresses T3, Equilibrative nucleoside transporter 2 (Rattus norvegicus) (UniProt O54699).
T3 sequence (whole entry): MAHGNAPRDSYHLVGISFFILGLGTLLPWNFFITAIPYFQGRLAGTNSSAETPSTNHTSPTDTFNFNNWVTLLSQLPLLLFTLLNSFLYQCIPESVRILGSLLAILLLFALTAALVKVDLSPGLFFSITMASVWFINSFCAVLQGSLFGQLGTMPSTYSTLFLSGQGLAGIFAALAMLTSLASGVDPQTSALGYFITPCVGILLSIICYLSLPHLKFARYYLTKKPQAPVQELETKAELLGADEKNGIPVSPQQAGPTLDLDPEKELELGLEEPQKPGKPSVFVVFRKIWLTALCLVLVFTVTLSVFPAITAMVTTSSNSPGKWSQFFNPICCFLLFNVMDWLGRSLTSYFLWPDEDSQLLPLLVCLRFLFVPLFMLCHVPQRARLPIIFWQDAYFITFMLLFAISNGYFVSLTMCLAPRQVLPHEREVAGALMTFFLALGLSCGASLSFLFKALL
Put plainly: Transport through ENT2 in rat hepatocytes by oil filtration assay in presence of sodium ions in Kreb-henseleit buffer. The note with it: Hepatocyte.

In test [5] the target is T4, Sodium/nucleoside cotransporter 2 (Rattus norvegicus) (UniProt Q62773).
T4 sequence (whole entry): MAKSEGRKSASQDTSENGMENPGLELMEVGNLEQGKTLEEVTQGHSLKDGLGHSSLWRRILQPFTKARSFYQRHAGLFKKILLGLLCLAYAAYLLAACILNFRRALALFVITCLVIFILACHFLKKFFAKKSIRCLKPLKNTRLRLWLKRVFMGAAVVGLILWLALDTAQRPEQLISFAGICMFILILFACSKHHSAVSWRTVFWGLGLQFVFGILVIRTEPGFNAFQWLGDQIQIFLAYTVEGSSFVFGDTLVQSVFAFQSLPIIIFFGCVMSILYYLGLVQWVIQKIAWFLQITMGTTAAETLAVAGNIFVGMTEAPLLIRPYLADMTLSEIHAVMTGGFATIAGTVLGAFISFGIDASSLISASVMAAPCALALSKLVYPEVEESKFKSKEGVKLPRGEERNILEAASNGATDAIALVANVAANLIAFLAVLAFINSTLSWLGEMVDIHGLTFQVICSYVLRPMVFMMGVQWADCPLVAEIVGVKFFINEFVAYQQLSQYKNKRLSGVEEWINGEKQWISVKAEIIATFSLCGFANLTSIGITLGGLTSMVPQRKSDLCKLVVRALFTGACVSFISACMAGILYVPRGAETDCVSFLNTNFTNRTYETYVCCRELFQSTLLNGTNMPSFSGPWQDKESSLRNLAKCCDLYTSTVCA
Kind of test: Transport through CNT2 in rat hepatocytes by oil filtration assay. The note with it: Hepatocyte.

Test [6] deals with T5, Equilibrative nucleoside transporter 1 (Rattus norvegicus) (UniProt O54698).
T5 sequence (whole entry): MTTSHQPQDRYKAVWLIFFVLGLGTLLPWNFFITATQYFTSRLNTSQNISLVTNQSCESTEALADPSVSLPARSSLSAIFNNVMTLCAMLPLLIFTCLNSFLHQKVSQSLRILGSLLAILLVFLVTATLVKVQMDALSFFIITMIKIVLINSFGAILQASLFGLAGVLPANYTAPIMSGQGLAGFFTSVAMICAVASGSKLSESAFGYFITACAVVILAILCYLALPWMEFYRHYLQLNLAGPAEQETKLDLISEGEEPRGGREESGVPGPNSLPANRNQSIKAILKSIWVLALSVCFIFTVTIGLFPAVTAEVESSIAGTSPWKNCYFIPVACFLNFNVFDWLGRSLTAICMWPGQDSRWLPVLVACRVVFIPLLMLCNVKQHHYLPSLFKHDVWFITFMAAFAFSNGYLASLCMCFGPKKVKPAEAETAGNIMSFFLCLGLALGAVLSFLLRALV
Put plainly: Transport through ENT1 in rat hepatocytes by oil filtration assay in presence of sodium ions in Kreb-henseleit buffer containing 100 uM NBMPR. The note with it: Hepatocyte.

The test system of test [7] is Hepatocyte. Put plainly: Transport through CNT3 in rat hepatocytes by oil filtration assay in presence of sodium ions in Kreb-henseleit buffer containing 100 uM NBMPR and 1 mM inosine.
Test [8] deals with T1, Equilibrative nucleoside transporter 2 (Mus musculus). Put plainly: Transport through ENT2 in mouse hepatocytes by oil filtration assay in presence 100 uM of transporter inhibitor NBMRP. As to conditions: Hepatocyte.

For the compound `NC(=O)c1ncn([C@@H]2O[C@H](CO)[C@@H](O)[C@H]2O)n1`, the outcome in test [1], in test [2], in test [3], in test [7] and in test [8] was inactive. In addition, the outcome in test [4], in test [5] and in test [6] was Active.
Consider `Nc1ncnc2c1ncn2[C@@H]1O[C@H](CO)[C@@H](O)[C@H]1O`, for which the outcome in test [1], in test [2], in test [3], in test [5], in test [7] and in test [8] was inactive. The result in test [4] and in test [6] was Active.
